Experimental data from US20260144796A1, “Compounds and Methods for Improving Health” (Acurx Pharmaceuticals, Inc., priority 2022, published 2026).
Converted amounts (≈) assume the structure as drawn. Where two headings read alike, the source gives them in different places.

How the values were obtained:
[1] = tested on: C. difficile infection (CDI); experiment: Phase 2a CDI clinical trial, clinical outcome and safety; type: in vivo, human
Experimental: Phase 2a of this trial was an open label cohort of 10 subjects from study centers in the United States. In this cohort, 10 patients with diarrhea caused by mild or moderate C. difficile diagnosed via toxin EIA+ were treated with ibezapolstat 450 mg orally, twice daily for 10 days. […] Stool was collected during course of therapy and at follow up. Patient fecal samples were evaluated for C. difficile culture and microbiome changes. […] Favorable microbiome changes included overgrowth of Actinobacteria and Firmicutes phylum species while on therapy. These findings support that microbiome effects may be predictive of beneficial patient outcomes including low rates of recurrence. […] Safety evaluations included AE assessment, physical examination, vital signs, clinical laboratory tests (chemistry, hematology, and urinalysis), and electrocardiogramaty endpoints for all subjects were recorded including nature, frequency, and severity of AEs. AEs were assessed at each visit beginning from the time of enrollment and classified according to the Medical Dictionary for Regulatory Activities (MedDRA version 15.0). AE severity (mild, moderate, or severe) and causality (unrelated, possibly related, or probably related to the study medication) were assessed by the investigator at each site. Stool samples were cultured for C. difficile growth on a selective cycloserine-cefoxitin fructose agar (CCFA) at 37° C. under anaerobic conditions for 48 hours. (Gonzales-Luna A J, Carlson T J. Dotson K M, et al. […] Emerg Microbes Infect 2020; 9(1): 341-7). Isolates were determined to be C. difficile based on growth and morphology and confirmed by PCR for C. difficile toxin and tpi genes. C. difficile was strain typed using a PCR-based ribotyping method as previously described (Gonzales-Luna A J, Carlson T J, Dotson K M, et al. […] Emerg Microbes Infect 2020; 9(1):341-7). Minimum inhibitory concentrations (MICs) were determined for ibezapolstat by broth microdilution in 0.1% sodium taurocholate Brain Heart Infusion (BHI) media (Begum K, Basseres E, Miranda J. et al. […] Antimicrob Agents Chemother 2020; 64(8)). An intent-to-treat analysis of patients receiving at least one dose of ibezapolstat was conducted. Descriptive statistics were calculated for efficacy, safety/tolerability, and PK data generated using SAS version 9.4 software (SAS Institute, Inc Cary, NC, USA). Microbiome summary plots and data visualization was prepared using R software version 4.1.1 (R Core Team 2021, Vienna, Austria). (R Core Team (2013). R: A language and environment for statistical computing. R Foundation for Statistical Computing, Vienna, Austria.

Flavonifractor plautii = experiment: MIC determination, stool Firmicute isolates; type: cell-based; details: N=1
Clostridioides difficile = experiment: MIC determination, C. difficile strains; type: cell-based
From the text: Fecal samples homogenized in reduced PBS (0.1 g stool/ml PBS) and serially diluted and plated directly onto YCFA7 agar supplemented with 0.002 g/ml each of glucose, maltose and cellobiose in large (13.5 cm diameter) petri dishes. Isolated colonies were identified by PCR amplification of the full-length 16S rRNA gene (using 7F (5′-[…]-3′) forward primer and 1510R (5′-[…]-3′) reverse primer followed by Sanger sequencing. Full-length 16S rRNA gene sequence reads were aligned using CLC Genomics (Qiagen) using the Ribosomal Database Project (RDP) as reference to classify reads to Operational Taxonomic Units (OTUs). The full-length 16S rRNA gene sequence of each species-level OTU was compared to the Ribosomal Database Project (RDP) reference database to assign taxonomic designations to the genus level and a BLAST search performed to identify any candidate novel species.
Strains plated onto blood agar (Hardy Diagnostics) with a 24-hour incubation at 37° C. in an anaerobic environment (Coy vinyl anaerobic chamber). After incubation, 3-5 well-isolated colonies were suspended into 5 mL of BHI broth (Criterion Media). The cultures were incubated in an anaerobic chamber for 24 hours to achieve a 0.5 McFarland Standard. Brucella agar with 5% hemin (5 ug/mL) (Sigma), vitamin K (10 ug/mL), and defibrinated sheep blood (Northeast Lab Services). The supplemented brucella agar was then utilized for two-fold serial dilution to create plates with IBZ concentration of 0.5 to 16 μg/mL plates. Plates were allowed to dry in a sterile location. After drying, the plates were covered with foil to prevent any photo-damage to the hemin and placed in the anaerobic chamber for 1 hour to reduce the media. The broth culture was then spotted onto the plates and covered with foil. Plates were allowed to dry completely before inverting them for incubation for 48 hours. Plates were analyzed and MIC recorded.

Enterococcus faecalis = experiment: MIC determination, stool Firmicute isolates; type: cell-based
Melissococcus plutonius = experiment: MIC determination, stool Firmicute isolates; type: cell-based; details: N=1

`O=c1[nH]c(NCc2ccc(Cl)c(Cl)c2)nc2ncn(CCN3CCOCC3)c12` [Ibezapolstat, 2-((3,4-dichlorobenzyl)amino)-7-(2-morpholinoethyl)-1,7-dihydro-6H-purin-6-one] was tested, and the adverse event profile ([1]; 10 CDI patients, 450 mg orally twice daily 10 days) was “acceptable adverse event profile”, the clinical cure ([1]; 10 CDI patients, 450 mg orally twice daily 10 days, at day 12) was 100% and the sustained clinical cure ([1]; 10 CDI patients, 450 mg orally twice daily 10 days, at day 38) was 100%. For the same compound, the success rate ([1]; Phase 2a CDI clinical trial) was 100%, the “eradication of colonic C. difficile” value ([1]; by day three of treatment) was “complete eradication” and the recurrences of infection ([1]; followed for recurrence for 28±2 days) was “no recurrences”. It also gave an MIC50 (Flavonifractor plautii) of 25 µg/mL (≈ 59.1 µM), an MIC50 (Clostridioides difficile; Clostridioides difficile, N=6) of 0.5 µg/mL (≈ 1.18 µM) and an MIC (Clostridioides difficile; Clostridioides difficile, N=6, read-out: MIC Max) of 1 µg/mL (≈ 2.36 µM). For the same compound, the MIC (Clostridioides difficile; Clostridioides difficile, N=6, read-out: MIC Min) was 0.25 µg/mL (≈ 0.591 µM), the MIC (Clostridioides difficile; Clostridioides difficile, strains of C. difficile, highly active) was no more than 2 µg/mL and the MIC (Clostridioides difficile; strains of C. difficile, highly active) was less than 2 µg/mL. It also gave an MIC50 (Enterococcus faecalis) of 12.5 µg/mL (≈ 29.5 µM), an MIC (Enterococcus faecalis; N=5, read-out: MIC Max) of 50 µg/mL (≈ 118 µM) and an MIC (Enterococcus faecalis; read-out: MIC Min) of 12.5 µg/mL (≈ 29.5 µM). The MIC50 (Melissococcus plutonius) was 6.25 µg/mL (≈ 14.8 µM).
